According to PubChem BioAssay (NCI):
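Interpolation was linear, between the two tested concentrations surrounding the appropriate level; five concentrations were tested over 48 hours in 96-well plates. Abbreviation: GI50, concentration required for 50% inhibition of growth. TGI denotes the concentration required for complete inhibition of growth.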

How the values were obtained:
Assay in all cases: NCI anticancer screen, dose series, 48 h; in the data active = GI50 below about 0.43 µM; inactive = the rest
NCI/ADR-RES ovarian = test system: NCI/ADR-RES ovarian
BT-549 breast = test system: BT-549 breast
RXF 393 renal = test system: RXF 393 renal
SN12C renal = test system: SN12C renal
HCT-116 colon = test system: HCT-116 colon
MCF7 breast = test system: MCF7 breast
UO-31 renal = test system: UO-31 renal
PC-3 prostate = test system: PC-3 prostate
A549 NSCLC = test system: A549 NSCLC
A498 renal = test system: A498 renal
RPMI-8226 leukemia = test system: RPMI-8226 leukemia
SNB-75 CNS = test system: SNB-75 CNS
NCI-H522 lung = test system: NCI-H522 lung
SF-539 CNS = test system: SF-539 CNS
SF-295 CNS = test system: SF-295 CNS
IGROV1 ovarian = test system: IGROV1 ovarian
MDA-MB-435 = test system: MDA-MB-435
MALME-3M melanoma = test system: MALME-3M melanoma
MDA-MB-231 breast = test system: MDA-MB-231 breast
COLO 205 colon = test system: COLO 205 colon
NCI-H226 lung = test system: NCI-H226 lung
CCRF-CEM leukemia = test system: CCRF-CEM leukemia
OVCAR-3 ovarian = test system: OVCAR-3 ovarian
ACHN renal = test system: ACHN renal
MOLT-4 leukemia = test system: MOLT-4 leukemia
UACC-257 melanoma = test system: UACC-257 melanoma
SK-OV-3 ovarian = test system: SK-OV-3 ovarian
EKVX NSCLC = test system: EKVX NSCLC
SF-268 CNS = test system: SF-268 CNS
UACC-62 melanoma = test system: UACC-62 melanoma
CAKI-1 renal = test system: CAKI-1 renal
DU-145 prostate = test system: DU-145 prostate
LOX IMVI melanoma = test system: LOX IMVI melanoma
K-562 leukemia = test system: K-562 leukemia
HS 578T breast = test system: HS 578T breast
SK-MEL-28 melanoma = test system: SK-MEL-28 melanoma
SK-MEL-5 melanoma = test system: SK-MEL-5 melanoma
OVCAR-5 ovarian = test system: OVCAR-5 ovarian
TK-10 renal = test system: TK-10 renal
HT29 colon = test system: HT29 colon
M14 melanoma = test system: M14 melanoma
786-0 renal = test system: 786-0 renal
T-47D breast = test system: T-47D breast
NCI-H23 lung = test system: NCI-H23 lung
HOP-62 NSCLC = test system: HOP-62 NSCLC
U251 CNS = test system: U251 CNS
OVCAR-8 ovarian = test system: OVCAR-8 ovarian
SNB-19 CNS = test system: SNB-19 CNS
HL-60(TB) leukemia = test system: HL-60(TB) leukemia
HOP-92 NSCLC = test system: HOP-92 NSCLC
KM12 colon = test system: KM12 colon
OVCAR-4 ovarian = test system: OVCAR-4 ovarian
SW-620 colon = test system: SW-620 colon
NCI-H460 lung = test system: NCI-H460 lung
HCT-15 colon = test system: HCT-15 colon
SK-MEL-2 melanoma = test system: SK-MEL-2 melanoma
SR leukemia = test system: SR leukemia
HCC-2998 colon = test system: HCC-2998 colon

O=C(O)c1ccccc1-c1ccccc1C(=O)Nc1ccc2c(c1)[nH]c(=O)c1ccccc12
> 100 µM: TGI (NCI/ADR-RES ovarian) | TGI (BT-549 breast) | TGI (RXF 393 renal) | TGI (SN12C renal) | TGI (HCT-116 colon) | TGI (MCF7 breast) | TGI (UO-31 renal) | TGI (PC-3 prostate) | TGI (A549 NSCLC) | TGI (A498 renal) | TGI (RPMI-8226 leukemia) | TGI (SNB-75 CNS) | TGI (NCI-H522 lung) | TGI (SF-539 CNS) | TGI (SF-295 CNS) | TGI (IGROV1 ovarian) | TGI (MDA-MB-435) | TGI (MALME-3M melanoma) | TGI (MDA-MB-231 breast) | TGI (COLO 205 colon) | TGI (NCI-H226 lung) | TGI (CCRF-CEM leukemia) | TGI (OVCAR-3 ovarian) | TGI (ACHN renal) | TGI (MOLT-4 leukemia) | TGI (UACC-257 melanoma) | TGI (SK-OV-3 ovarian) | TGI (EKVX NSCLC) | TGI (SF-268 CNS) | TGI (UACC-62 melanoma) | TGI (CAKI-1 renal) | TGI (DU-145 prostate) | TGI (LOX IMVI melanoma) | TGI (K-562 leukemia) | TGI (HS 578T breast) | TGI (SK-MEL-28 melanoma) | TGI (SK-MEL-5 melanoma) | TGI (OVCAR-5 ovarian) | TGI (TK-10 renal) | TGI (HT29 colon) | TGI (M14 melanoma) | TGI (786-0 renal) | TGI (T-47D breast) | TGI (NCI-H23 lung) | TGI (HOP-62 NSCLC) | TGI (U251 CNS) | TGI (OVCAR-8 ovarian) | TGI (SNB-19 CNS) | TGI (HL-60(TB) leukemia) | TGI (HOP-92 NSCLC) | TGI (KM12 colon) | TGI (OVCAR-4 ovarian) | TGI (SW-620 colon) | TGI (NCI-H460 lung) | TGI (HCT-15 colon) | TGI (SK-MEL-2 melanoma)

N#Cc1c(N)nc(NCc2ccccc2)c(C#N)c1-c1ccccc1Cl
> 100 µM: TGI (NCI/ADR-RES ovarian) | TGI (RXF 393 renal) | TGI (HCT-116 colon) | TGI (MCF7 breast) | TGI (UO-31 renal) | TGI (PC-3 prostate) | TGI (A549 NSCLC) | TGI (RPMI-8226 leukemia) | TGI (MDA-MB-435) | TGI (COLO 205 colon) | TGI (MOLT-4 leukemia) | TGI (UACC-257 melanoma) | TGI (SK-OV-3 ovarian) | TGI (CAKI-1 renal) | TGI (SK-MEL-28 melanoma) | TGI (SK-MEL-5 melanoma) | TGI (OVCAR-5 ovarian) | TGI (HT29 colon) | TGI (HCC-2998 colon) | TGI (M14 melanoma) | TGI (T-47D breast) | TGI (NCI-H23 lung) | TGI (OVCAR-8 ovarian) | TGI (SNB-19 CNS) | TGI (KM12 colon) | TGI (SW-620 colon) | TGI (HCT-15 colon)
60.2 µM: TGI (UACC-62 melanoma)
45.3 µM: TGI (OVCAR-4 ovarian)
48.8 µM: TGI (SNB-75 CNS)
49.7 µM: TGI (OVCAR-3 ovarian)
14.5 µM: TGI (NCI-H226 lung)
32.8 µM: TGI (SR leukemia)
10.3 µM: TGI (U251 CNS)
40.5 µM: TGI (SF-539 CNS)
66 µM: TGI (TK-10 renal)
41.1 µM: TGI (IGROV1 ovarian)
inactive: GI50 (NCI/ADR-RES ovarian) 37.1 µM | GI50 (BT-549 breast) 16.7 µM | GI50 (RXF 393 renal) 24.6 µM | GI50 (SN12C renal) 4.53 µM | GI50 (HCT-116 colon) 16.3 µM | GI50 (MCF7 breast) 20 µM | GI50 (UO-31 renal) 38.1 µM | GI50 (PC-3 prostate) 12 µM | GI50 (A549 NSCLC) 21.3 µM | GI50 (A498 renal) 19.2 µM | GI50 (RPMI-8226 leukemia) 48.6 µM | GI50 (SNB-75 CNS) 10.3 µM | GI50 (NCI-H522 lung) 12.6 µM | GI50 (SF-539 CNS) 17.9 µM | GI50 (SR leukemia) 10.8 µM | GI50 (SF-295 CNS) 12.6 µM | GI50 (IGROV1 ovarian) 5.08 µM | GI50 (MDA-MB-435) 21.8 µM | GI50 (MALME-3M melanoma) 21 µM | GI50 (MDA-MB-231 breast) 5.76 µM | GI50 (COLO 205 colon) 74 µM | GI50 (NCI-H226 lung) 2.39 µM | GI50 (CCRF-CEM leukemia) 15.2 µM | GI50 (OVCAR-3 ovarian) 18.4 µM | GI50 (ACHN renal) 5.73 µM | GI50 (MOLT-4 leukemia) 26.8 µM | GI50 (UACC-257 melanoma) > 100 µM | GI50 (SK-OV-3 ovarian) 62.7 µM | GI50 (EKVX NSCLC) 24.4 µM | GI50 (SF-268 CNS) 12.6 µM | GI50 (UACC-62 melanoma) 12.4 µM | GI50 (CAKI-1 renal) 14.6 µM | GI50 (DU-145 prostate) 21.5 µM | GI50 (LOX IMVI melanoma) 4.75 µM | GI50 (HS 578T breast) 11.3 µM | GI50 (SK-MEL-28 melanoma) 49.5 µM | GI50 (SK-MEL-5 melanoma) 51.3 µM | GI50 (OVCAR-5 ovarian) 26.8 µM | GI50 (TK-10 renal) 22.3 µM | GI50 (HT29 colon) 73.4 µM | GI50 (HCC-2998 colon) > 100 µM | GI50 (M14 melanoma) 23.2 µM | GI50 (786-0 renal) 13.4 µM | GI50 (T-47D breast) 67.3 µM | GI50 (NCI-H23 lung) 17.5 µM | GI50 (HOP-62 NSCLC) 4.47 µM | GI50 (U251 CNS) 2.46 µM | GI50 (OVCAR-8 ovarian) 11.4 µM | GI50 (SNB-19 CNS) 23.4 µM | GI50 (HOP-92 NSCLC) 3.57 µM | GI50 (KM12 colon) 47 µM | GI50 (OVCAR-4 ovarian) 5.04 µM | GI50 (SW-620 colon) 18.9 µM | GI50 (NCI-H460 lung) 4.99 µM | GI50 (HCT-15 colon) > 100 µM | GI50 (SK-MEL-2 melanoma) 22.9 µM
25.1 µM: TGI (SN12C renal)
88.6 µM: TGI (DU-145 prostate)
43 µM: TGI (HS 578T breast)
53.9 µM: TGI (BT-549 breast)
46.9 µM: TGI (A498 renal)
33.8 µM: TGI (MDA-MB-231 breast)
62.7 µM: TGI (ACHN renal)
45.5 µM: TGI (CCRF-CEM leukemia)
36.2 µM: TGI (786-0 renal)
76.2 µM: TGI (SF-295 CNS)
25.5 µM: TGI (HOP-92 NSCLC)
18 µM: TGI (HOP-62 NSCLC)
30.1 µM: TGI (NCI-H460 lung)
93.5 µM: TGI (SK-MEL-2 melanoma)
55 µM: TGI (NCI-H522 lung)
35.9 µM: TGI (LOX IMVI melanoma)
85.3 µM: TGI (EKVX NSCLC)
90.2 µM: TGI (MALME-3M melanoma)
58.5 µM: TGI (SF-268 CNS)
